We go through 36 compounds from patent publication US11033539B2, “Compounds of formulas (VII), (VIII), (IX), (XI), (XII), (XIII), and (XIV) as muscarinic receptor 4(M4) antagonists for treating neurological diseases” (Neurocrine Biosciences, Inc., priority 2015, dated 2021).

This assay deals with human M4 receptor (Homo sapiens (Human), UniProt P08173). Briefly: Radioligand (tritiated N-methylscopolamine) binding assay, M4. The conditions noted are these: Ki against the M4 receptor; membranes from CHO cells expressing human M4; tritiated N-methylscopolamine 1.5 nM; read-out: Ki. The method, boiled down: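 Inhibition of radioligand binding gave Ki. The assay used recombinant CHO membranes, 1.5 nM tracer, a 90 min/37 °C incubation and pH 7.4 buffer.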
Chain of human M4 receptor (P08173 whole entry): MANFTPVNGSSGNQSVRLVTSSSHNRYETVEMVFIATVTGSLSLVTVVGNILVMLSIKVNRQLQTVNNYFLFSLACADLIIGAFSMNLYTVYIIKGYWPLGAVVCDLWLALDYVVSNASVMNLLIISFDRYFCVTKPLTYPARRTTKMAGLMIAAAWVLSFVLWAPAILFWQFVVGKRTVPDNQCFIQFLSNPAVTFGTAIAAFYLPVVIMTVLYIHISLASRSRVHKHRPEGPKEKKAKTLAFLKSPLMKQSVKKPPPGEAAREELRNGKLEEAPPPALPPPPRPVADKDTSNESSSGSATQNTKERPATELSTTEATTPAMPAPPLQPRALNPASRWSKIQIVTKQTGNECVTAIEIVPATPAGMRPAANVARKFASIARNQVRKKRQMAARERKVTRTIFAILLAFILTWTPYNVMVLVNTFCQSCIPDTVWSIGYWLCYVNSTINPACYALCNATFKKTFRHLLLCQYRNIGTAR

For the compound `N#Cc1ccc(-c2ccc(C(=O)NCCC3CCN(Cc4ccccc4)CC3)cc2)cc1` [9-30, N-[2-(1-benzylpiperidin-4-yl)ethyl]-4-(4-cyanophenyl)benzamide], the Ki fell in the range of 10 to 100 nM.

As for `CN(CCNC(=O)C1CCN(c2cccc(OC(F)(F)F)c2)CC1)[C@H]1CCN(Cc2ccccc2)C1` [9-31, N-(2-{[(3S)-1-benzylpyrrolidin-3-yl](methyl)amino}ethyl)-1-[3-(trifluoromethoxy)phenyl]piperidine-4-carboxamide], the inhibition constant Ki lay within 10 to 100 nM.

As for `Cc1nc(-c2ccc(C(F)(F)F)cc2)sc1C(=O)NCCC1CCN(Cc2ccccc2)CC1` [9-32, N-[2-(1-benzylpiperidin-4-yl)ethyl]-4-methyl-2-[4-(trifluoromethyl)phenyl]-1,3-thiazole-5-carboxamide], the inhibition constant (Ki) was in the range of 10 to 100 nM.

Regarding `CN(C1CCN(C(=O)C2CCN(c3ccc(OC(F)(F)F)cc3)CC2)CC1)[C@@H]1CCN(Cc2ccccc2)C1` [9-33, N-[(3R)-1-benzylpyrrolidin-3-yl]-N-methyl-1-{1-[4-(trifluoromethoxy)phenyl]piperidine-4-carbonyl}piperidin-4-amine], the Ki was in the range of 10 to 100 nM.

`CN(CCC1CCN(Cc2ccccc2)CC1)C(=O)C1CCN(c2ccc(OC(F)(F)F)cc2)CC1` [9-34, N-[2-(1-benzylpiperidin-4-yl)ethyl]-N-methyl-1-[4-(trifluoromethoxy)phenyl]piperidine-4-carboxamide]: the inhibition constant Ki is 100 to 1000 nM.

Consider `CN(CCNC(=O)C1CCN(c2ccc(OC(F)(F)F)c(F)c2)CC1)C1CN(Cc2ccccc2)CC1CO` (stereo not drawn) [9-35, N-(2-{[1-benzyl-4-(hydroxymethyl)pyrrolidin-3-yl](methyl)amino}ethyl)-1-[3-fluoro-4-(trifluoromethoxy)phenyl]piperidine-4-carboxamide], for which the inhibition constant Ki is 100 to 1000 nM.

Regarding `O=C(CCC1CCN(Cc2ccccc2)CC1)NC1CCN(c2ccc(OC(F)(F)F)cc2)CC1` [9-36, 3-(1-benzylpiperidin-4-yl)-N-{1-[4-(trifluoromethoxy)phenyl]piperidin-4-yl}propanamide], the Ki was 100 to 1000 nM.

For the compound `O=C(NCCC1CCN(Cc2ccccc2)CC1)C1CCN(c2ncc(Br)cn2)CC1` [9-37, N-[2-(1-benzylpiperidin-4-yl)ethyl]-1-(5-bromopyrimidin-2-yl)piperidine-4-carboxamide], the inhibition constant (Ki) lay in the range of 100 to 1000 nM.

For the compound `CN(CCNC(=O)c1ccc(-c2ccccc2)cc1)[C@@H]1CCN(Cc2ccccc2)C1` [9-38, N-(2-{[(3R)-1-benzylpyrrolidin-3-yl](methyl)amino}ethyl)-4-phenylbenzamide], the Ki fell in the range of 100 to 1000 nM.

Consider `CN(CCNC(=O)c1ccc(-c2ccc(OC(F)(F)F)cc2)cc1)[C@@H]1CCN(Cc2ccccc2)C1` [9-39, N-(2-{[(3R)-1-benzylpyrrolidin-3-yl](methyl)amino}ethyl)-4-[4-(trifluoromethoxy)phenyl]benzamide], for which the inhibition constant (Ki) was in the range of 10 to 100 nM.

With `Cc1ccc(-c2ccc(C(=O)NCCC3CCN(Cc4ccccc4)CC3)c(F)c2)cc1` [9-40, N-[2-(1-benzylpiperidin-4-yl)ethyl]-2-fluoro-4-(4-methylphenyl)benzamide], the inhibition constant Ki was in the range of 10 to 100 nM.

`O=C(NCCC1CCN(Cc2ccccc2)CC1)c1ccc(-c2ccc(F)cc2)cc1` [9-41, N-[2-(1-benzylpiperidin-4-yl)ethyl]-4-(4-fluorophenyl)benzamide]: the Ki fell in the range of 10 to 100 nM.

With `CN(CCC1CC[N+](C)(Cc2ccccc2)CC1)C(=O)C1CCN(c2ccc(OC(F)(F)F)cc2)CC1` (stereo not drawn) [9-42, 1-benzyl-1-methyl-4-[2-(N-methyl-1-{1-[4-(trifluoromethoxy)phenyl]piperidin-4-yl}formamido)ethyl]piperidin-1-ium], the Ki lay in the range of 100 to 1000 nM.

Regarding `O=C(Cc1ccc(OCc2ccccc2)cc1)NCCC1CCN(Cc2ccccc2)CC1` [9-43, 2-[4-(benzyloxy)phenyl]-N-[2-(1-benzylpiperidin-4-yl)ethyl]acetamide], the Ki lay in the range of 100 to 1000 nM.

`N#Cc1cc(N2CCC(C(=O)NCCC3(O)CCN(Cc4ccccc4)CC3)CC2)ccc1F` [9-44, N-[2-(1-benzyl-4-hydroxypiperidin-4-yl)ethyl]-1-(3-cyano-4-fluorophenyl)piperidine-4-carboxamide]: the Ki fell in the range of 10 to 100 nM.

As to `CCCn1c(=O)c2nc(-c3ccc(C(=O)NCCC4CCN(Cc5ccccc5)CC4)cc3)[nH]c2n(CCC)c1=O` [9-45, N-[2-(1-benzylpiperidin-4-yl)ethyl]-4-(2,6-dioxo-1,3-dipropyl-2,3,6,9-tetrahydro-1H-purin-8-yl)benzamide], the Ki was 10 to 100 nM.

For the compound `O=C(NCCC1(O)CCN(Cc2ccccc2)CC1)C1CCN(c2cccc(OC(F)(F)F)c2)CC1` [9-46, N-[2-(1-benzyl-4-hydroxypiperidin-4-yl)ethyl]-1-[3-(trifluoromethoxy)phenyl]piperidine-4-carboxamide], the Ki fell in the range of 10 to 100 nM.

`N#Cc1ccc(N2CCC(C(=O)NCCC3CCN(Cc4ccccc4)CC3)CC2)nc1` [9-47, N-[2-(1-benzylpiperidin-4-yl)ethyl]-1-(5-cyanopyridin-2-yl)piperidine-4-carboxamide]: the inhibitory constant (Ki) is 100 to 1000 nM.

In the case of `O=C(c1ccn2cc(-c3ccc(OC(F)(F)F)cc3)nc2c1)N(C1CC1)C1CCN(Cc2ccccc2)CC1` [9-48, N-(1-benzylpiperidin-4-yl)-N-cyclopropyl-2-[4-(trifluoromethoxy)phenyl]imidazo[1,2-a]pyridine-7-carboxamide], the inhibition constant (Ki) was in the range of 100 to 1000 nM.

Take `O=C(NCC[C@H]1CCN(Cc2ccccc2)C1)C1CCN(c2ccc(OC(F)(F)F)cc2)CC1` [9-49, N-{2-[(3S)-1-benzylpyrrolidin-3-yl]ethyl}-1-[4-(trifluoromethoxy)phenyl]piperidine-4-carboxamide]: the inhibition constant Ki lay in the range of 100 to 1000 nM.

`O=C(CCC1CCN(Cc2ccccc2)CC1)NC1CCN(c2cccc(OC(F)(F)F)c2)CC1` [9-50, 3-(1-benzylpiperidin-4-yl)-N-{1-[3-(trifluoromethoxy)phenyl]piperidin-4-yl}propanamide]: the inhibition constant Ki is 100 to 1000 nM.

For the compound `COc1ccc(-c2cc3ncc(C(=O)NCCC4CCN(Cc5ccccc5)CC4)c(C)n3n2)cc1` [9-51, N-[2-(1-benzylpiperidin-4-yl)ethyl]-2-(4-methoxyphenyl)-7-methylpyrazolo[1,5-a]pyrimidine-6-carboxamide], the inhibitory constant (Ki) lay in the range of 100 to 1000 nM.

With `Cc1ccnc(N2CCC(C(=O)NCCC3CCN(Cc4ccccc4)CC3)CC2)c1` [9-52, N-[2-(1-benzylpiperidin-4-yl)ethyl]-1-(4-methylpyridin-2-yl)piperidine-4-carboxamide], the Ki lay in the range of 100 to 1000 nM.

As for `O=C(c1ccc(-c2cccs2)cc1)N(C1CC1)C1CCN(Cc2ccccc2)CC1` [9-53, N-(1-benzylpiperidin-4-yl)-N-cyclopropyl-4-(thiophen-2-yl)benzamide], the inhibition constant Ki fell in the range of 100 to 1000 nM.

Turning to `O=C(NCCN[C@@H]1CCN(Cc2ccccc2)C1)C1CCN(c2cccc(OC(F)(F)F)c2)CC1` [9-54, N-(2-{[(3R)-1-benzylpyrrolidin-3-yl]amino}ethyl)-1-[3-(trifluoromethoxy)phenyl]piperidine-4-carboxamide], the Ki fell in the range of 100 to 1000 nM.

Regarding `O=C(NCCC1CCN(Cc2ccccc2)CC1)c1ccc(-c2cccs2)cc1` [9-55, N-[2-(1-benzylpiperidin-4-yl)ethyl]-4-(thiophen-2-yl)benzamide], the Ki lay within 100 to 1000 nM.

Regarding `O=C(NCCC1CCN(Cc2ccccc2)CC1)c1ccc(SC(F)(F)F)cc1` [9-56, N-[2-(1-benzylpiperidin-4-yl)ethyl]-4-[(trifluoromethyl)sulfanyl]benzamide], the inhibition constant Ki was 100 to 1000 nM.

Regarding `Cc1nc(-c2ccc(F)nc2)sc1C(=O)NCCC1CCN(Cc2ccccc2)CC1` [9-57, N-[2-(1-benzylpiperidin-4-yl)ethyl]-2-(6-fluoropyridin-3-yl)-4-methyl-1,3-thiazole-5-carboxamide], the inhibition constant (Ki) fell in the range of 100 to 1000 nM.

For `O=C(C1CCN(c2ncc(C(F)(F)F)cc2Cl)CC1)N(CCC1CCN(Cc2ccccc2)CC1)C1CC1` [9-58, N-[2-(1-benzylpiperidin-4-yl)ethyl]-1-[3-chloro-5(trifluoromethyl)pyridin-2-yl]-N-cyclopropylpiperidine-4-carboxamide], the inhibition constant Ki is 100 to 1000 nM.

With `COc1ccc(-c2cc(C(F)(F)F)n3nc(C(=O)NCCC4CCN(Cc5ccccc5)CC4)cc3n2)cc1` [9-59, N-[2-(1-benzylpiperidin-4-yl)ethyl]-5-(4-methoxyphenyl)-7-(trifluoromethyl)pyrazolo[1,5-a]pyrimidine-2-carboxamide], the inhibition constant Ki was in the range of 100 to 1000 nM.

Take `N#Cc1cc2ccccc2nc1-c1cc(C(=O)NCCC2CCN(Cc3ccccc3)CC2)ccc1Cl` [9-60, N-[2-(1-benzylpiperidin-4-yl)ethyl]-4-chloro-3-(3-cyanoquinolin-2-yl)benzamide]: the Ki was in the range of 100 to 1000 nM.

Turning to `Cc1[nH]c(-c2ccc(Cl)cc2Cl)nc1C(=O)NCCC1CCN(Cc2ccccc2)CC1` [9-61, N-[2-(1-benzylpiperidin-4-yl)ethyl]-2-(2,4-dichlorophenyl)-5-methyl-1H-imidazole-4-carboxamide], the Ki was in the range of 100 to 1000 nM.

On to `O=C(NCC1CCN(Cc2ccccc2)CC1)C1CCN(c2ncc(C(F)(F)F)cc2Cl)CC1` [9-65, N-[(1-benzylpiperidin-4-yl)methyl]-1-[3-chloro-5-(trifluoromethyl)pyridin-2-yl]piperidine-4-carboxamide], for which the inhibition constant Ki fell in the range of 100 to 1000 nM.

With `O=C(NCC[C@@H]1CCN(Cc2ccccc2)C1)C1CCN(c2ccc(OC(F)(F)F)cc2)CC1` [9-66, N-{2-[(3R)-1-benzylpyrrolidin-3-yl]ethyl}-1-[4-(trifluoromethoxy)phenyl]piperidine-4-carboxamide], the inhibition constant (Ki) lay in the range of 100 to 1000 nM.

For the compound `Cc1cc(Cl)c(-c2cc(C(=O)NCCC3CCN(Cc4ccccc4)CC3)ccc2Cl)cn1` [9-67, N-[2-(1-benzylpiperidin-4-yl)ethyl]-4-chloro-3-(4-chloro-6-methylpyridin-3-yl)benzamide], the Ki lay within 100 to 1000 nM.

Regarding `O=C(NCCN1CCC(Cc2ccccc2)CC1)c1ccn2cc(-c3ccc(OC(F)(F)F)cc3)nc2c1` [9-68, N-[2-(4-benzylpiperidin-1-yl)ethyl]-2-[4-(trifluoromethoxy)phenyl]imidazo[1,2-a]pyridine-7-carboxamide], the inhibition constant Ki lay in the range of 100 to 1000 nM.

By Ki is commonly meant the dissociation constant of the complex between target and ligand, obtained from inhibition or displacement.
